According to US20180221463A1, “Modified NK Cells and Uses Thereof” (priority 2017, published 2018):

Key:
[1] = molecular target: T1, SMAD3 (Homo sapiens, UniProt P84022); assay: Blockade of Smad3 in NK-92 cells under TGF-β1: E4BP4 and IFN-γ levels; type: cell-based; details: high TGF-β1 (5 ng/ml), SIS3 5 μM
T1 construct: NK-92 cells were pretreated with SIS3 at various concentrations for 2 hours; endogenous in cells; host or cells: NK-92 (human NK cell line)
Procedure: To reveal the regulatory role of SMAD3 and E4BP4 in the production of IFN-γ in NK-92 cells, a specific inhibitor of SMAD3 known as SIS3 (Sigma) was used in this study. Briefly, NK-92 cells were pretreated with SIS3 at various concentrations for 2 hours. The cells were then treated with TGF-β1 at the final concentration of 5 ng/ml for 45 min and harvested for detection of the phosphorylation level of SMAD3 with western blot. The dosage of SIS3 that induced the maximum effect of phosphorylation inhibition of SMAD3 was determined as the optimal dosage of SIS3 used in further experiment. NK-92 cells were then pretreated with or without SIS3 at the determined concentration for 2 hours followed by stimulation with TGF-β1 at the final concentration of 5 ng/ml for 12 hours. The cells were harvested to detect the level of E4BP4 and IFN-γ.

[2] = system: SMAD3; assay: SMAD3 knockdown in NK-92 cells, real-time PCR and western blot; type: cell-based, human
Procedure: NK-92 cells were transduced with rLV-hSMAD3 and selected with puromycin (InvivoGen). Briefly, NK-92 cells were seeded in a 24-well plate at a density of 1×10^6/ml and mixed with ploybrene (Santa Cruz) at final concentration of 5 ug/ml and rLV-hSmad3 at MOI (multiplicity of infection) equal to 50 overnight at 37° C. The transduced cells were then expanded in complete medium and selected with puromycin at a final concentration of 2 ug/ml. The expression level of SMAD3 in the puromycin resistant clone was determined by real-time PCR with corresponding primers (Table 2) and Western blot analysis with rabbit anti human SMAD3 antibody (Abcam) respectively.
Total RNA from cells was isolated using the PureLink™ RNA Mini kit (Life Technologies) according to the manufacturer's instruction. The reverse transcription reaction was conducted with C1000 thermal cycler. The cDNA was then diluted with 40 ul RNase-free water and used as the template in real-time polymerase chain reaction.

T1 sequence (P84022 whole entry): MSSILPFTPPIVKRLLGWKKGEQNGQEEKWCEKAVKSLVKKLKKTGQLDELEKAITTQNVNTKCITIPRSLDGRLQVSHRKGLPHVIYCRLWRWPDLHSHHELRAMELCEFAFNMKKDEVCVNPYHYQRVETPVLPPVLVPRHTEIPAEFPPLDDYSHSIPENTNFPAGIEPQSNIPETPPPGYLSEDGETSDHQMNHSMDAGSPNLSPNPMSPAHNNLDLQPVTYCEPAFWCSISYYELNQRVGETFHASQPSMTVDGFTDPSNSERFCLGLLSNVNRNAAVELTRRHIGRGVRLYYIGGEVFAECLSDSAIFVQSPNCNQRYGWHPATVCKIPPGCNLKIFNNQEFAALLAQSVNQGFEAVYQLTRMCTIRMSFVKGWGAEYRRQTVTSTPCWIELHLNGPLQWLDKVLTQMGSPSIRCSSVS

Compound	expressions of E4BP4 mRNA and protein [1]	production of IFN-γ [1]	mRNA expression of SMAD3 ([2]; real-time PCR)	decrease in SMAD3 protein ([2]; western blot)
COc1cc2c(cc1OC)CN(C(=O)/C=C/c1c(-c3ccccc3)n(C)c3ncccc13)CC2 [SIS3]	markedly increase	markedly increase	–	–
shRNA-hSmad3: shRNA specifically against human SMAD3 mRNA, sequence GGAGAAATGGTGCGAGAAG (Table 3), delivered by lentivirus (shRNA hairpin; lentiviral delivery)	–	–	largely down-regulated	more than 70%
